Experimental data taken from patent publication US7138361B2, “Herbicidal heterocycles” (E. I. du Pont de Nemours and Company, priority 2000, dated 2006).

How the values were obtained:
Type in all cases: in vivo
[1] = system: velvetleaf (Abutilon theophrasti); assay: Test B preemergence
Method in brief: (§1)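 Pre: seeded pots sprayed, chemical in non-phytotoxic solvent/surfactant mix. Post: plants 2–18 cm, 1–4 leaf, same formulation. Greenhouse 13–15 d; visual % control vs untreated, 0–100 scale.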

[2] = system: lambsquarters (Chenopodium album); assay: Test B preemergence
Method in brief: as §1

[3] = system: pigweed (Amaranthus retroflexus); assay: Test B preemergence
Method in brief: as §1

[4] = system: giant foxtail (Setaria faberii); assay: Test B preemergence
Method in brief: as §1

[5] = system: crabgrass (Digitaria sanguinalis); assay: Test B preemergence
Method in brief: as §1

[6] = system: morning glory (Ipomoea hederacea); assay: Test B preemergence
Method in brief: as §1

[7] = system: Surinam grass (Brachiaria decumbens); assay: Test B preemergence
Method in brief: as §1

[8] = system: cocklebur (Xanthium strumarium); assay: Test B preemergence
Method in brief: as §1

[9] = system: barnyardgrass (Echinochloa crus-galli); assay: Test B preemergence
Method in brief: as §1

[10] = system: corn (Zea mays); assay: Test B preemergence
Method in brief: as §1

[11] = system: rice (Oryza saliva); assay: Test B preemergence
Method in brief: as §1

[12] = system: velvetleaf (Abutilon theophrasti); assay: Test B postemergence; conditions: Rate 500 g/ha, scale 0 to 100, 0 is no effect, 100 is complete control, 13 to 15 days
Method in brief: as §1

[13] = system: lambsquarters (Chenopodium album); assay: Test B postemergence; conditions: Rate 500 g/ha, scale 0 to 100, 0 is no effect, 100 is complete control, 13 to 15 days
Method in brief: as §1

[14] = system: pigweed (Amaranthus retroflexus); assay: Test B postemergence; conditions: Rate 500 g/ha, scale 0 to 100, 0 is no effect, 100 is complete control, 13 to 15 days
Method in brief: as §1

[15] = system: giant foxtail (Setaria faberii); assay: Test B postemergence; conditions: 13 to 15 days
Method in brief: as §1

[16] = system: blackgrass (Alopecurus myosuroides); assay: Test B postemergence; conditions: 13 to 15 days
Method in brief: as §1

[17] = system: crabgrass (Digitaria sanguinalis); assay: Test B postemergence; conditions: 13 to 15 days
Method in brief: as §1

[18] = system: morning glory (Ipomoea hederacea); assay: Test B postemergence; conditions: Rate 500 g/ha, scale 0 to 100, 0 is no effect, 100 is complete control, 13 to 15 days
Method in brief: as §1

[19] = system: wild oat (Avena fatua); assay: Test B postemergence; conditions: Rate 500 g/ha, scale 0 to 100, 0 is no effect, 100 is complete control, 13 to 15 days
Method in brief: as §1

[20] = system: Surinam grass (Brachiaria decumbens); assay: Test B postemergence; conditions: 13 to 15 days
Method in brief: as §1

[21] = system: wheat (Triticum aestivum); assay: Test B postemergence; conditions: Rate 500 g/ha, scale 0 to 100, 0 is no effect, 100 is complete control, 13 to 15 days
Method in brief: as §1

[22] = system: cocklebur (Xanthium strumarium); assay: Test B postemergence; conditions: 13 to 15 days
Method in brief: as §1

[23] = system: barnyardgrass (Echinochloa crus-galli); assay: Test B postemergence; conditions: 13 to 15 days
Method in brief: as §1

[24] = system: corn (Zea mays); assay: Test B postemergence; conditions: 13 to 15 days
Method in brief: as §1

[25] = system: rice (Oryza saliva); assay: Test C flooded paddy test; conditions: for Rice plant response rating: Flooded Paddy, scale 0 to 100, 0 no effect, 100 complete control; for Plant response rating, Rice / Plant response rating (scale 0 to 100), Rice: flooded paddy test; for Plant response rating, Rice: scale 0 to 100 (0 no effect, 100 complete control)
Method in brief: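 Each species was cultivated to 2 leaves in flooded paddy pots, then treated. After a greenhouse period of 12–14 days, the plants were scored visually relative to controls from 0 (no effect) to 100 (complete control).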

[26] = system: Sunflower; assay: Test C preemergence; conditions: Rate 250 g/ha, scale 0 to 100, 0 no effect, 100 complete control
[27] = system: Nightshade; assay: Test C preemergence; conditions: Rate 500 g/ha, visual evaluation after 12 to 14 days
[28] = Preemergence, Rate 500 g/ha, scale 0 to 100, 0 no effect, 100 complete control
[29] = preemergence, Rate 125 g/ha, scale of 0 to 100 where 0 is no effect and 100 is complete control, 13 to 15 days
[30] = Rate 125 g/ha, scale 0 (no effect) to 100 (complete control)
[31] = Rate 500 g/ha, scale 0 to 100, 0 is no effect, 100 is complete control

Structure (SMILES): CCCC(C)c1ccn(C2OCN(c3cccc(OC(F)(F)F)c3)C2=O)n1 (centres unmarked) [Compound 91]
- Plant response rating, Velvetleaf [1, 28]: 0
- Plant response rating, Velvetleaf [1, 29]: 0
- Plant response rating, Lambsquarters [2, 28]: 100
- Plant response rating, Lambsquarters [2, 29]: 100
- Plant response rating, Pigweed [3, 28]: 100
- Plant response rating, Pigweed [3, 29]: 90
- Plant response rating, Foxtail, Giant [4, 28]: 100
- Plant response rating, Foxtail, Giant [4, 29]: 90
- Plant response rating, Crabgrass [5, 28]: 100
- Plant response rating, Crabgrass [5, 29]: 100
- Plant response rating, Morningglory [6, 28]: 0
- Plant response rating, Morningglory [6, 29]: 0
- Plant response rating, Surinam grass [7, 28]: 80
- Plant response rating, Surinam grass [7, 29]: 70
- Plant response rating, Cocklebur [8, 28]: 0
- Plant response rating, Cocklebur [8, 29]: 0
- Plant response rating, Barnyardgrass [9, 28]: 100
- Plant response rating, Barnyardgrass [9, 29]: 100
- Plant response rating, Corn [10, 28]: 30
- Plant response rating, Corn [10, 29]: 0
- Plant response rating, Rice [11, 28]: 0
- Plant response rating, Rice [11, 29]: 0
- Plant response rating, Velvetleaf [12]: 30
- Plant response rating, Lambsquarters [13]: 100
- Plant response rating, Pigweed [14]: 90
- Plant response rating, Foxtail, Giant [15, 30]: 0
- Plant response rating, Foxtail, Giant [15, 31]: 40
- Plant response rating, Blackgrass [16, 30]: 0
- Plant response rating, Blackgrass [16, 31]: 0
- Plant response rating, Crabgrass [17, 30]: 40
- Plant response rating, Crabgrass [17, 31]: 90
- Plant response rating, Morningglory [18]: 80
- Plant response rating, Wild Oat [19]: 0
- Plant response rating, Surinam grass [20, 30]: 10
- Plant response rating, Surinam grass [20, 31]: 10
- Plant response rating, Wheat [21]: 0
- Plant response rating, Cocklebur [22, 30]: 20
- Plant response rating, Cocklebur [22, 31]: 80
- Plant response rating, Barnyardgrass [23, 30]: 50
- Plant response rating, Barnyardgrass [23, 31]: 90
- Plant response rating, Corn [24, 30]: 0
- Plant response rating, Corn [24, 31]: 10
- Rice plant response rating ([25]; Rate 250 g/ha): 20
- Rice plant response rating ([25]; Rate 500 g/ha): 40
- Plant response rating, Rice ([25]; Rate 62 g/ha): 0
- Plant response rating, Rice ([25]; Rate 125 g/ha): 20
- Plant response rating (scale 0 to 100), Rice ([25]; Rate 16 g/ha, visually evaluated after 12 to 14 days, 0 = no effect, 100 = complete control): 0
- Plant response rating (scale 0 to 100), Rice ([25]; under head Rate 16 g/ha, (own rate not given), after 12 to 14 days): 0
- Plant response rating, Sunflower [26]: 0
- Plant response rating (0 to 100), Nightshade [27]: 10
